Results: patent US7517874B2 (priority 2007, dated 2009)
Like-named read-outs stand apart in the source and are kept apart here.

What was measured:
[1] = biological target: human CB1 receptor (hCB1) (Homo sapiens, UniProt P21554); test: cell-based; type: cell-based
In short: (§1)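 First, cells in IBMX-containing HEPES-buffered HBSS are raised to elevated cAMP with 2-8 μM NKH-477 for 30 min. Data are normalised to the forskolin and forskolin + 1 μM CP55,940 controls.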

rat CB2 receptor (rCB2) = biological target: T1, rat CB2 receptor (rCB2) (Rattus norvegicus, UniProt Q9QZN9); test: cell-based; type: cell-based; settings: for +/− RCB2: agonist or inverse agonist at rCB2
T1 sequence (Q9QZN9 1-360): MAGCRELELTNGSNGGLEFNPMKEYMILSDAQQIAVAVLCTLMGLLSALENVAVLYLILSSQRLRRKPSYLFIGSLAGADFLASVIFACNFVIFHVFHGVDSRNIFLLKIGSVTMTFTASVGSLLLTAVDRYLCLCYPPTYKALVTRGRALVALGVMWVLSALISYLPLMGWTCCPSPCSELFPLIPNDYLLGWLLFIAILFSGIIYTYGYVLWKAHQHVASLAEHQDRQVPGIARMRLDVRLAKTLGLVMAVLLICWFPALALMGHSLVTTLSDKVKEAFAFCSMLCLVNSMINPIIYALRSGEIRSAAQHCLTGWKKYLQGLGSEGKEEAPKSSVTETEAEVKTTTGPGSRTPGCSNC
In short: as §1

Chain of human CB1 receptor (hCB1) (P21554 whole entry): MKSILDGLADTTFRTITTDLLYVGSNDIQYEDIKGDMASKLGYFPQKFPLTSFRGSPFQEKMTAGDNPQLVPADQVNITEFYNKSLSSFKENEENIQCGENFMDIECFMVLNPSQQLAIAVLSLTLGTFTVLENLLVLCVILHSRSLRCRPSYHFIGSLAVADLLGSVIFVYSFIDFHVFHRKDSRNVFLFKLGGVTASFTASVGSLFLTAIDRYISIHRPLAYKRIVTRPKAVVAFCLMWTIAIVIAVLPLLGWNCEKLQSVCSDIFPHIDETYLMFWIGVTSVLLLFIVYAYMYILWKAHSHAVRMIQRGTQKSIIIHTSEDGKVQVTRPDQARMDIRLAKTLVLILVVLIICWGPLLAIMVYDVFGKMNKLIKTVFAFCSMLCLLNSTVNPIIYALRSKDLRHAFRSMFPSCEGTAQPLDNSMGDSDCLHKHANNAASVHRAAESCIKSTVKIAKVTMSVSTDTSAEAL

SMILES | EC50 [1] | +/− RCB2 (rat CB2 receptor (rCB2)) | EC50 (rat CB2 receptor (rCB2)) | EC50 ([1]; groups >100 nM-10 μM and >10 μM, cAMP, CHO-K1 hCB1, read-out: EC50 HCB1) | +/− HCB1 ([1]; agonist or inverse agonist at hCB1)
CNC(=O)[C@@H](NC(=O)c1nc(C(=O)c2ccccc2)n2c1CN(C)CC2)C(C)(C)C [Compound 289, (S)-3-benzoyl-N-(3,3-dimethyl-1-(methylamino)-1-oxobutan-2-yl)-7-methyl-5,6,7,8-tetrahydroimidazo[1,5-a]pyrazine-1-carboxamide] | > 10000 nM | − |  |  | 
CNC(=O)[C@@H](NC(=O)c1nc(-c2ccc(Cl)cc2F)n2c1CNCCC2)C(C)(C)C [Compound 315, (S)-3-(4-chloro-2-fluorophenyl)-N-(3,3-dimethyl-1-(methylamino)-1-oxobutan-2-yl)-6,7,8,9-tetrahydro-5H-imidazo[1,5-a][1,4]diazepine-1-carboxamide] | > 10000 nM |  | > 10 µM |  | 
CC(C)NC(=O)[C@@H](NC(=O)c1nc(-c2ccccc2)n2c1CN(C)CCC2)C(C)(C)C [Compound 472, (S)-N-(1-(isopropylamino)-3,3-dimethyl-1-oxobutan-2-yl)-8-methyl-3-phenyl-6,7,8,9-tetrahydro-5H-imidazo[1,5-a][1,4]diazepine-1-carboxamide] | > 10000 nM | + |  |  | 
COC(=O)N1CCn2c(-c3ccccc3)nc(C(=O)N[C@H](C)C3CCCCC3)c2C1 [Compound 185, (R)-methyl 1-(1-cyclohexylethylcarbamoyl)-3-phenyl-5,6-dihydroimidazo[1,5-a]pyrazine-7(8H)-carboxylate] | > 10000 nM | − |  |  | 
CNC(=O)[C@@H](NC(=O)c1nc(CCCN2CCCC2)n2c1CN(C)CC2)C(C)(C)C [Compound 308, (S)-N-(3,3-dimethyl-1-(methylamino)-1-oxobutan-2-yl)-7-methyl-3-(3-(pyrrolidin-1-yl)propyl)-5,6,7,8-tetrahydroimidazo[1,5-a]pyrazine-1-carboxamide] | > 10000 nM | − |  |  | 
CNC(=O)[C@@H](NC(=O)c1nc(C(C)C)n2c1CN(C)CCC2)C(C)(C)C [Compound 496, (S)-N-(3,3-dimethyl-1-(methylamino)-1-oxobutan-2-yl)-3-isopropyl-8-methyl-6,7,8,9-tetrahydro-5H-imidazo[1,5-a][1,4]diazepine-1-carboxamide] | > 10000 nM | + |  |  | 
Cc1noc([C@@H](NC(=O)c2nc(-c3ccccc3)n3c2CN(CC2CC2)CC3)C(C)(C)C)n1 [Compound 88, (S)-7-(cyclopropylmethyl)-N-(2,2-dimethyl-1-(3-methyl-1,2,4-oxadiazol-5-yl)propyl)-3-phenyl-5,6,7,8-tetrahydroimidazo[1,5-a]pyrazine-1-carboxamide] | > 10000 nM | − |  |  | 
CNC(=O)[C@@H](NC(=O)c1nc(-c2ccc(C(N)=O)c(F)c2)n2c1CN(C)CCC2)C(C)(C)C [Compound 427, (S)-3-(4-carbamoyl-3-fluorophenyl)-N-(3,3-dimethyl-1-(methylamino)-1-oxobutan-2-yl)-8-methyl-6,7,8,9-tetrahydro-5H-imidazo[1,5-a][1,4]diazepine-1-carboxamide] | > 10000 nM |  | > 10 µM |  | 
CNC(=O)[C@@H](NC(=O)c1nc(-c2cccc(S(C)(=O)=O)c2)n2c1CN(C)CCC2)C(C)(C)C [Compound 409] | > 10000 nM | − |  |  | 
CCS(=O)(=O)N1CCn2c(-c3ccc(Cl)cc3)nc(C(=O)NCCC(C)C)c2C1 [Compound 116, 3-(4-chlorophenyl)-7-(ethylsulfonyl)-N-isopentyl-5,6,7,8-tetrahydroimidazo[1,5-a]pyrazine-1-carboxamide] | > 10000 nM | − |  |  | 
CNC(=O)[C@@H](NC(=O)c1nc(/C=C/COC)n2c1CN(C)CCC2)C(C)(C)C [Compound 398, (S,E)-N-(3,3-dimethyl-1-(methylamino)-1-oxobutan-2-yl)-3-(3-methoxyprop-1-enyl)-8-methyl-6,7,8,9-tetrahydro-5H-imidazo[1,5-a][1,4]diazepine-1-carboxamide] | > 10000 nM | + |  |  | 
CC(C)(C)OC(=O)N1CCCn2c(-c3ccccc3)nc(C(=O)N[C@H](C(=O)O)C(C)(C)C)c2C1 [Compound 515, (S)-2-(8-(tert-butoxycarbonyl)-3-phenyl-6,7,8,9-tetrahydro-5H-imidazo[1,5-a][1,4]diazepine-1-carboxamido)-3,3-dimethylbutanoic acid] |  | − |  | > 10000 nM | 
C=C(C)c1nc(C(=O)N[C@H](C(=O)NC)C(C)(C)C)c2n1CCN(C)C2 [Compound 267, (S)-N-(3,3-dimethyl-1-(methylamino)-1-oxobutan-2-yl)-7-methyl-3-(prop-1-en-2-yl)-5,6,7,8-tetrahydroimidazo[1,5-a]pyrazine-1-carboxamide] | > 10000 nM | + |  |  | 
CNC(=O)[C@@H](NC(=O)c1nc(-c2ccccc2C(F)(F)F)n2c1CN(C)CC2)C(C)(C)C [Compound 255, (S)-N-(3,3-dimethyl-1-(methylamino)-1-oxobutan-2-yl)-7-methyl-3-(2-(trifluoromethyl)phenyl)-5,6,7,8-tetrahydroimidazo[1,5-a]pyrazine-1-carboxamide] | > 10000 nM | + |  |  | 
CN1CCn2c(-c3ccc(Cl)cc3F)nc(C(=O)N3CCC(C(N)=O)(N4CCOCC4)CC3)c2C1 [Compound 225] | > 10000 nM |  | > 10 µM |  | 
Cc1noc([C@@H](NC(=O)c2nc(-c3ccccc3)n3c2CN(C)CC3)C(C)(C)C)n1 [Compound 87, (S)-N-(2,2-dimethyl-1-(3-methyl-1,2,4-oxadiazol-5-yl)propyl)-7-methyl-3-phenyl-5,6,7,8-tetrahydroimidazo[1,5-a]pyrazine-1-carboxamide] | > 10000 nM | − |  |  | 
CNC(=O)[C@@H](NC(=O)c1nc(-c2ccccc2C#N)n2c1CN(C)CC2)C(C)(C)C [Compound 259, (S)-3-(2-cyanophenyl)-N-(3,3-dimethyl-1-(methylamino)-1-oxobutan-2-yl)-7-methyl-5,6,7,8-tetrahydroimidazo[1,5-a]pyrazine-1-carboxamide] | > 10000 nM |  | > 10 µM |  | 
CNC(=O)[C@@H](NC(=O)c1nc(/C=C/CN2CCCC2)n2c1CN(C)CCC2)C(C)(C)C [Compound 511, (S,E)-N-(3,3-dimethyl-1-(methylamino)-1-oxobutan-2-yl)-8-methyl-3-(3-(pyrrolidin-1-yl)prop-1-enyl)-6,7,8,9-tetrahydro-5H-imidazo[1,5-a][1,4]diazepine-1-carboxamide] | > 10000 nM | + |  |  | 
CNC(=O)[C@@H](NC(=O)c1nc(-c2cc(Cl)ccc2F)n2c1CN(C)CC2)C(C)(C)C [Compound 246, (S)-3-(5-chloro-2-fluorophenyl)-N-(3,3-dimethyl-1-(methylamino)-1-oxobutan-2-yl)-7-methyl-5,6,7,8-tetrahydroimidazo[1,5-a]pyrazine-1-carboxamide] | > 10000 nM | − |  |  | 
CN1CCCn2c(-c3ccc(F)cc3F)nc(C(=O)N[C@H](C(=O)N(C)C)C(C)(C)C)c2C1 [Compound 563, (S)-3-(2,4-difluorophenyl)-N-(1-(dimethylamino)-3,3-dimethyl-1-oxobutan-2-yl)-8-methyl-6,7,8,9-tetrahydro-5H-imidazo[1,5-a][1,4]diazepine-1-carboxamide] |  | + |  |  | +
CC(=O)N1CCn2c(-c3ccccc3)nc(C(=O)NCC3CCOCC3)c2C1 [Compound 176, 7-acetyl-3-phenyl-N-((tetrahydro-2H-pyran-4-yl)methyl)-5,6,7,8-tetrahydroimidazo[1,5-a]pyrazine-1-carboxamide] | > 10000 nM |  | > 10 µM |  | 
